Where a name gives a salt, the structure may show the parent alone. Read-outs that look alike come from different tables or passages of the source. Values belong to the compound of their own block, whether it stands above or below them.
What was measured:
[1] = Systemic exposure and pharmacokinetics after single oral gavage dose of 200 mg/kg in fasted male SD rats; format: in vivo, Sprague Dawley (SD) rats; conditions: for Fold difference in plasma concentration compared to micronized free-base form: 30 hours post-dose; for Increase of systemic drug exposure in AUC0-t compared with micro MBX-2982 (free base): equivalent amounts
Experimental: Two studies were conducted in order to compare the systemic exposure and pharmacokinetics (PK) of microcrystalline MBX-2982 and salt forms of MBX-2982 in fasted male Sprague Dawley (SD) rats following single oral gavage (PO) doses of 200 mg/kg. Four salt foms of MBX-2982 were investigate in the studies. The tested salts were HCl Form I, HCl salt Form II, mesylate salt and the tosylate salt.
Preparation of samples was performed by solvent precipitation of plasma proteins in a 1 mL/well 96-well plate. Standards were prepared by spiking 10 μL of blank plasma with 10 μL of standard solution (acetonitrile containing MBX-2982 at 0.01, 0.02, 0.05, 0.1, 0.2, 0.5, 1, 2, 5, 10, 20, 50 and 100 μg/mL) and 300 μL of 0.1% formic acid in acetonitrile containing 0.2 μg/mL internal standard. Plasma samples were prepared by adding 10 μL of plasma sample, 10 μL of acetonitrile, and 300 μL of 0.2 μg/mL internal standard in 0.1% formic acid in acetonitrile. After addition of the organic solvents, all samples were vortexed briefly and centrifuged at 3600 rpm for 10 minutes. Some of the samples were diluted 1.3 to 2-fold with blank plasma. An aliquot of the supernatant (25 μL) was transfer to a 1 mL/well 96-well plate and mixed with 200 μL water/ACN (50/50, v/v) and injected into the HPLC.
The suspensions for microcrystalline MBX-2982 (free base) and salt forms of MBX-2982 were prepared in 1% carboxymethylcellulose and 2% tween 80 in water (w/w/v).
Five groups of animals were given microcrystalline and salt forms suspension doses of MBX-2982 orally at 200 mg/kg, respectively. Food was withheld the night before dose and returned nine hours after dosing. Blood samples were collected at 0.25, 0.5, 1, 2, 4, 6, 9, 24, 30 and 48 h post dose. MBX-2982 plasma concentration from these samples was analyzed by a non-validated high performance liquid chromatography in conjunction with mass spectrometry (LC-MS/MS) method.
Plasma concentration-time data for individual animals were analyzed using WinNonlin software (Professional, version 5.0.1; Pharsight Corp.). A non-compartmental model (model 200) was used. Peak area ratios of MBX-2982 to internal standard and concentration were fitted to a quadratic equation (Calibration Curve) with 1/x weighting using a quadratic regression program in Analyst version 1.4.2 (Applied Biosystem Inc). The equations were then used to interpolate the concentrations of MBX-2982 in samples from peak area to internal standard ratio.
The following pharmacokinetic parameters were calculated: • 1) Cmax: Maximum (peak) plasma concentration • 2) Tmax: Time at which Cmax occurred • 3) t1/2: Terminal phase half-life • 4) AUC0-t: Area under the concentration-time curve from time 0 to last measurable concentration • 5) AUC0-inf: Area under the concentration-time curve from time 0 extrapolated to infinity

[2] = Moisture sorption of HCl Form I; format: physicochemical
Source text: A steady ˜0.9 wt % gain was observed between ˜5% and ˜95% RH. A complete desorption occurred upon decreasing relative humidity to ˜5% (˜0.9 wt % loss between ˜95% and ˜5% RH).

[3] = Overnight / elevated RH stress of the crystalline salts; format: physicochemical; conditions: overnight / elevated relative humidity stress
[4] = fasted male SD rats, single PO dose 200 mg/kg, mean ± SD

Mean plasma concentration of MBX-2982 ([1]; 0.5 h post dose, fasted male SD rats, PO 200 mg/kg, mean ± SD, hydrochloride): 9790 ± 3730 ng/mL
Mean plasma concentration of MBX-2982 ([1]; 1 h post dose, fasted male SD rats, PO 200 mg/kg, mean ± SD, hydrochloride): 15500 ± 3150 ng/mL
Mean plasma concentration of MBX-2982 ([1]; 2 h post dose, fasted male SD rats, PO 200 mg/kg, mean ± SD, hydrochloride): 24200 ± 3350 ng/mL
Mean plasma concentration of MBX-2982 ([1]; 4 h post dose, fasted male SD rats, PO 200 mg/kg, mean ± SD, hydrochloride): 31400 ± 7100 ng/mL
Mean plasma concentration of MBX-2982 ([1]; 6 h post dose, fasted male SD rats, PO 200 mg/kg, mean ± SD, hydrochloride): 28100 ± 8460 ng/mL
Mean plasma concentration of MBX-2982 ([1]; 9 h post dose, fasted male SD rats, PO 200 mg/kg, mean ± SD, hydrochloride): 23800 ± 6990 ng/mL
Mean plasma concentration of MBX-2982 ([1]; 24 h post dose, fasted male SD rats, PO 200 mg/kg, mean ± SD, hydrochloride): 7430 ± 9630 ng/mL
Mean plasma concentration of MBX-2982 ([1]; 24 h post dose, fasted male SD rats, PO 200 mg/kg, mean ± SD, listed as HCl form I, hydrochloride): 7300 ng/mL
Fold difference in plasma concentration compared to micronized free-base form ([1]; male SD rats, PO 200 mg/kg, listed as HCl form I, hydrochloride): 94 fold
Mean plasma concentration of MBX-2982 ([1]; 30 h post dose, fasted male SD rats, PO 200 mg/kg, mean ± SD, hydrochloride): 7520 ± 12630 ng/mL
Mean plasma concentration of MBX-2982 ([1]; 48 h post dose, fasted male SD rats, PO 200 mg/kg, mean ± SD, hydrochloride): 1080 ± 2310 ng/mL
Increase of systemic drug exposure in AUC0-t compared with micro MBX-2982 (free base) ([1]; male SD rats, PO 200 mg/kg, hydrochloride): 2.4 fold
concentration at 30 h ([1]; male, Sprague-Dawley, rat, plasma, po, 30 h post dose, male SD rats, PO 200 mg/kg, read-out: Plasma level at 30 hours post-dose): 7.52 ng/mL
half-life ([1]; male, Sprague-Dawley, rat, plasma, po, fasted male SD rats, single PO dose 200 mg/kg, mean ± SD): 4.01 ± 1.68 h
AUC(0-t) ([1]; male, Sprague-Dawley, rat, plasma, po, fasted male SD rats, single PO dose 200 mg/kg, mean ± SD, read-out: AUC0-24): 454 ± 98.4 µg·h/mL
AUC0-inf ([1]; male, Sprague-Dawley, rat, plasma, po, fasted male SD rats, single PO dose 200 mg/kg, mean ± SD, read-out: AUC0-inf): 536 ± 29.9 µg·h/mL
AUC(0-t) ([1]; male, Sprague-Dawley, rat, plasma, po, fasted male SD rats, single PO dose 200 mg/kg, mean ± SD, read-out: AUC0-t): 571 ± 249 µg·h/mL
Cmax ([1]; male, Sprague-Dawley, rat, plasma, po, fasted male SD rats, single PO dose 200 mg/kg, mean ± SD, read-out: Cmax): 31200 ± 7410 ng/mL
Tmax ([1]; male, Sprague-Dawley, rat, plasma, po, fasted male SD rats, single PO dose 200 mg/kg, mean ± SD, read-out: Tmax): 7.25 ± 9.25 h
Weight gain on sorption ([2]; between ~5% and ~95% RH): ~0.9 wt %
Weight loss on desorption ([2]; between ~95% and ~5% RH): ~0.9 wt %
Weight loss upon equilibration ([2]; equilibration at ~5% RH): ~0.3 wt %
SMILES: CCc1cnc(N2CCC(c3nc(COc4ccc(-n5cnnn5)cc4)cs3)CC2)nc1.Cl [HCl Salt Form I, 5-ethyl-2-{4-[4-(4-tetrazol-1-yl-phenoxymethyl)-thiazol-2-yl]-piperidin-1-yl}-pyrimidine hydrochloride]

Mean plasma concentration of MBX-2982 ([1]; 0.5 h post dose, fasted male SD rats, PO 200 mg/kg, mean ± SD): 10100 ± 2450 ng/mL
Mean plasma concentration of MBX-2982 ([1]; 1 h post dose, fasted male SD rats, PO 200 mg/kg, mean ± SD): 13000 ± 3330 ng/mL
Mean plasma concentration of MBX-2982 ([1]; 2 h post dose, fasted male SD rats, PO 200 mg/kg, mean ± SD): 19700 ± 2550 ng/mL
Mean plasma concentration of MBX-2982 ([1]; 4 h post dose, fasted male SD rats, PO 200 mg/kg, mean ± SD): 23600 ± 6900 ng/mL
Mean plasma concentration of MBX-2982 ([1]; 6 h post dose, fasted male SD rats, PO 200 mg/kg, mean ± SD): 20300 ± 11200 ng/mL
Mean plasma concentration of MBX-2982 ([1]; 9 h post dose, fasted male SD rats, PO 200 mg/kg, mean ± SD): 18600 ± 10550 ng/mL
Mean plasma concentration of MBX-2982 ([1]; 24 h post dose, fasted male SD rats, PO 200 mg/kg, mean ± SD): 4200 ± 5510 ng/mL
Mean plasma concentration of MBX-2982 ([1]; 24 h post dose, fasted male SD rats, PO 200 mg/kg, mean ± SD, listed as tosylate): 4200 ng/mL
Fold difference in plasma concentration compared to micronized free-base form ([1]; male SD rats, PO 200 mg/kg): 40 fold
Mean plasma concentration of MBX-2982 ([1]; 30 h post dose, fasted male SD rats, PO 200 mg/kg, mean ± SD): 3180 ± 5880 ng/mL
Mean plasma concentration of MBX-2982 ([1]; 30 h post dose, fasted male SD rats, PO 200 mg/kg, mean ± SD, listed as tosylate): 3180 ng/mL
Mean plasma concentration of MBX-2982 ([1]; 48 h post dose, fasted male SD rats, PO 200 mg/kg, mean ± SD): 20 ± 10 ng/mL
AUC0-24 [1, 4]: 342 ± 117 µg·h/mL
AUC0-inf [1, 4]: 393 ± 98.1 µg·h/mL
AUC(0-t) [1, 4]: 392 ± 98.2 µg·h/mL
Cmax [1, 4]: 26100 ± 7980 ng/mL
Tmax [1, 4]: 4.00 ± 1.63 h
t1/2 [1, 4]: 3.20 ± 0.88 h
Increase of systemic drug exposure in AUC0-t compared with micro MBX-2982 (free base) ([1]; male SD rats, PO 200 mg/kg): 1.7 fold
Appearance of the material after RH stress [3]: remained a free flowing powder
SMILES: CCc1cnc(N2CCC(c3nc(COc4ccc(-n5cnnn5)cc4)cs3)CC2)nc1 [Tosylate Salt, 5-ethyl-2-{4-[4-(4-tetrazol-1-yl-phenoxymethyl)-thiazol-2-yl]-piperidin-1-yl}-pyrimidine]

From US9150567B2, “Substituted tetrazol-1-yl-phenoxymethyl-thiazol-2-yl-piperidinyl-pyrimidine salts” (CYMABAY THERAPEUTICS, INC., priority 2009, dated 2015)
